According to patent publication US10000471B2, “Pyrazole P38 map kinase inhibitors” (Respivert Limited, priority 2010, dated 2018):
pEC50, pIC50: −log10 of the molar value.

Assays:
[1] = biological target: T1, p38 MAPKα isoform (MAPK14) (Homo sapiens, UniProt Q16539); assay: Enzyme inhibition assay (FRET, Z-LYTE), p38 MAPKα via MAPKAP-K2 activation; format: biochemical; conditions: read-out: Enzyme Inhibition IC50 p38α
T1 construct: purchased Invitrogen
Method in brief: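 Recombinant p38 MAPKα was preincubated with compound for 2 h at RT. Its activity was measured indirectly through activation/phosphorylation of downstream MAPKAP-K2, with a Z-LYTE FRET peptide read-out (coumarin/fluorescein ratio) after a 1 h development step. IC50 came from concentration-response curves of percent inhibition versus an uninhibited control.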

p38 MAPKγ (MAPK12) = biological target: T2, p38 MAPKγ (MAPK12) (Homo sapiens, UniProt P53778); assay: Enzyme inhibition assay (FRET, Z-LYTE), p38 MAPKγ; format: biochemical; conditions: read-out: Enzyme Inhibition IC50 p38γ
T2 construct: purchased Invitrogen
T2 sequence (P53778 1-367): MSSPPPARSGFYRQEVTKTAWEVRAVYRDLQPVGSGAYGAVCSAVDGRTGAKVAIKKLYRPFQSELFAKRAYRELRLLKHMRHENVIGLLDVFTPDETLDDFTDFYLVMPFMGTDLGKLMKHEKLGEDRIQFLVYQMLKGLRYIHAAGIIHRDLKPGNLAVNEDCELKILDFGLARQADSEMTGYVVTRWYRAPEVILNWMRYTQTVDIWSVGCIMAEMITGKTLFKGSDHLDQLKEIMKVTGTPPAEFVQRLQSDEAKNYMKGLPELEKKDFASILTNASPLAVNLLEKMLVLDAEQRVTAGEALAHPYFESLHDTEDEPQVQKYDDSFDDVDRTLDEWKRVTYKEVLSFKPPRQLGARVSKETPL
Method in brief: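 Recombinant phosphorylated p38 MAPKγ preincubated 2 h at RT with compound in HEPES buffer, then 2 μM FRET peptide and 100 μM ATP added for 1 h; protease development 1 h. Coumarin/fluorescein emission ratio gave phosphorylation; IC50 from concentration-response versus uninhibited control.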

[2] = system: TNFα release in THP-1 cells; assay: LPS-induced TNFα release in THP-1 cells; format: cell-based, human; conditions: Homo sapiens
Method in brief: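 Human monocytic THP-1 cells stimulated with 3 μg/mL E. coli LPS for 4 hr; supernatant TNFα measured by sandwich ELISA. Inhibition at each concentration versus vehicle control, IC50 from concentration-response curve.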

[3] = system: TNFα release in d-U937 cells; assay: LPS-induced TNFα release in d-U937 cells; format: cell-based, human; conditions: Homo sapiens, dU937, relative to 10 μg/mL BIRB796, read-out: LPS/TNFα REC50 d-U937
Method in brief: (§1)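 PMA-differentiated (100 ng/ml, 48–72 hr) U937 macrophage-type cells pre-incubated 2 hr with compound, then stimulated 4 hr with 0.1 μg/mL E. coli O111:B4 LPS; supernatant TNFα and IL-8 measured by sandwich ELISA. TNFα inhibition expressed relative to 10 μg/mL BIRB796, giving REC50; IL-8 inhibition versus vehicle, giving IC50.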

[4] = system: IL-8 release in d-U937 cells; assay: LPS-induced IL-8 release in d-U937 cells; format: cell-based, human; conditions: Homo sapiens, dU937
Method in brief: as §1

[5] = system: ICAM-1 induction in BEAS2B cells; assay: Poly I:C-induced ICAM-1 induction in BEAS2B cells; format: cell-based, human; conditions: Homo sapiens, BEAS-2B, read-out: PolyIC/ICAM1 IC50 BEAS2B
Method in brief: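 Human bronchial epithelial BEAS2B cells were pre-incubated with compound for 2 hr, then transfected with 1 μg/mL poly I:C. After 18 hr, surface ICAM-1 was measured by cell-based ELISA (OD450-655) and normalized to crystal violet cell counts (OD595). IC50 came from inhibition versus vehicle across the concentration-response curve.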

[6] = system: Differentiated U937 cells; assay: Cell viability MTT assay; format: cell-based, human; conditions: negative = apparent increase in viability; for MTT Assay (Viability) 4 h d-U937, percentage loss of cell viability: 4 hr in 5% FCS; for MTT Assay (Viability) 24 h d-U937, percentage loss of cell viability: 24 h in 10% FCS
Method in brief: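 Differentiated U937 cells pre-incubated with compound either 4 hr in 5% FCS or 24 h in 10% FCS, then 1 hr MTT. Formazan dissolved in DMSO, absorbance at 550 nm. Percentage viability loss relative to 0.5% DMSO vehicle; apparent increases appear as negative percentages.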

T1 sequence (Q16539 whole entry, canonical isoform): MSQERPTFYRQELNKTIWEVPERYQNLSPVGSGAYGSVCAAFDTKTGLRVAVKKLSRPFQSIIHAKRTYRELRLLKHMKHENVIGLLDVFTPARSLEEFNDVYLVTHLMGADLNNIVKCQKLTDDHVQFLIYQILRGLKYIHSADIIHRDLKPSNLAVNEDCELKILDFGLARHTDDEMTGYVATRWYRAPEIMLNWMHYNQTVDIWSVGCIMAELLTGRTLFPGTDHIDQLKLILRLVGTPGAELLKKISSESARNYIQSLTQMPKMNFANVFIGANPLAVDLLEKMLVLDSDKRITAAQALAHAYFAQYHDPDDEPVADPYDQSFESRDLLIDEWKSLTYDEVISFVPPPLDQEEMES

Row | pIC50 [1] | pIC50 (p38 MAPKγ (MAPK12)) | pIC50 [2] | pEC50 [3] | pIC50 [4] | SMILES | pIC50 [5] | MTT Assay (Viability) 4 h d-U937, percentage loss of cell viability [6] [%] | MTT Assay (Viability) 24 h d-U937, percentage loss of cell viability [6] [%]
1 | 7.54 | 5.54 | 7.01 | 6.77 | 6.57 | COCC(=O)Nc1cc(CSc2ccc(NC(=O)Nc3cc(C(C)(C)C)nn3-c3ccc(OC)cc3)c(Cl)c2Cl)ccn1 [Example 26, N-(4-((4-(3-(3-tert-Butyl-1-(4-methoxyphenyl)-1H-pyrazol-5-yl)ureido)-2,3-dichlorophenylthio)methyl)pyridin-2-yl)-2-methoxyacetamide] | < 6.81 | 10.5 | −4.3
2 | 7.61 | 7.24 | 8.80 | 8.77 | 9.70 | CCNC(=O)Nc1cc(Oc2ccc(NC(=O)Nc3cc(C(C)(C)C)nn3-c3ccc(OC)cc3)c(Cl)c2Cl)ccn1 [Example 12, 1-(4-(4-(3-(3-tert-Butyl-1-(4-methoxyphenyl)-1H-pyrazol-5-yl)ureido)-2,3-dichlorophenoxy)pyridin-2-yl)-3-ethylurea] | 8.57 | 5.0 | 24.1
3 | 8.35 | 6.62 | 9.70 | 10.00 | 10.00 | COCC(=O)Nc1cc(Oc2ccc(NC(=O)Nc3cc(C(C)(C)C)nn3-c3ccc(C)cc3)c(Cl)c2C#N)ccn1 [Example 4, N-(4-(4-(3-(3-tert-Butyl-1-p-tolyl-1H-pyrazol-5-yl)ureido)-3-chloro-2-cyanophenoxy)pyridin-2-yl)-2-methoxyacetamide] | 8.96 | −24.1 | 64.5
4 | 9.52 | 6.72 | 9.15 | 8.80 | 8.70 | COCC(=O)Nc1cc(Oc2ccc(NC(=O)Nc3cc(C(C)(C)C)nn3-c3ccc(C)cc3)c3ncccc23)ccn1 [Example 40, N-(4-(8-(3-(3-tert-butyl-1-p-tolyl-1H-pyrazol-5-yl)ureido)quinolin-5-yloxy)pyridin-2-yl)-2-methoxyacetamide] | 7.78 | −10.7 | 28.4
5 | 7.77 | 7.49 | 9.00 | 9.30 | 8.72 | CNC(=O)Nc1cc(Oc2ccc(NC(=O)Nc3cc(C(C)(C)C)nn3-c3ccc(CO)cc3)c(Cl)c2Cl)ccn1 [Example 52, 1-(3-tert-butyl-1-(4-hydroxymethylphenyl)-1H-pyrazol-5-yl)-3-(2,3-dichloro-4-(2-(3-methylureido)pyridin-4-yloxy)phenyl)urea] | 8.62 | −43.8 | 8.1
6 | 7.49 | 7.44 | 9.30 | 9.40 | 8.18 | COc1ccc(-n2nc(C(C)(C)C)cc2NC(=O)Nc2ccc(Oc3ccnc(NC(=O)N4CCCC4)c3)c(C#N)c2Cl)cc1 [Example 79, N-(4-(4-(3-(3-tert-butyl-1-(4-methoxyphenyl)-1H-pyrazol-5-yl)ureido)-3-chloro-2-cyanophenoxy)pyridin-2-yl)pyrrolidine-1-carboxamide] | 8.89 | −13.9 | 23.2
7 | 8.20 | 7.65 | 9.40 | 8.96 | 8.29 | CC(C)(C)c1cc(NC(=O)Nc2ccc(Oc3ccnc(NC(=O)CN4CCOCC4)c3)c(Cl)c2Cl)n(-c2ccc(CO)cc2)n1 [Example 48, N-(4-(4-(3-(3-tert-butyl-1-(4-hydroxymethylphenyl)-1H-pyrazol-5-yl)ureido)-2,3-dichlorophenoxy)pyridin-2-yl)-2-morpholino-acetamide] | 8.66 | 12.5 | 84.1
8 | 7.09 | < 4.76 | 5.75 | 6.79 | 4.89 | CNC(=O)Nc1cc(COc2ccc(NC(=O)Nc3cc(C(C)(C)C)nn3-c3ccc(C)cc3)c3cccnc23)ccn1 [Example 21, 1-(3-tert-Butyl-1-p-tolyl-1H-pyrazol-5-yl)-3-(8-((2-(3-methylureido)pyridin-4-yl)methoxy)quinolin-5-yl)urea] | < 5.76 | 14.5 | −12.0
9 | 7.67 | 7.35 | 8.96 | 9.52 | 8.31 | COc1ccc(-n2nc(C(C)(C)C)cc2NC(=O)Nc2ccc(Oc3ccnc(NC(=O)NCCO)c3)c(Cl)c2Cl)cc1 [Example 66, 1-(4-(4-(3-(3-tert-butyl-1-(4-methoxyphenyl)-1H-pyrazol-5-yl)ureido)-2,3-dichlorophenoxy)pyridin-2-yl)-3-(2-hydroxyethyl)urea] | 8.26 | 15.0 | 90.3
10 | 8.10 | 7.32 | 8.74 | 8.66 | 7.68 | COCC(=O)Nc1cc(Oc2ccc(NC(=O)Nc3cc(C(C)(C)C)nn3-c3ccc(OC)cc3)c(Cl)c2Cl)ccn1 [Example 44, N-(4-(4-(3-(3-tert-butyl-1-(4-methoxyphenyl)-1H-pyrazol-5-yl)ureido)-2,3-dichlorophenoxy)pyridin-2-yl)-2-methoxyacetamide] | 9.05 | −25.9 | 87.1
11 | 7.06 | 7.28 | 8.66 | 9.52 | 8.49 | CNC(=O)Nc1cc(Oc2ccc(NC(=O)Nc3cc(C(C)(C)C)nn3-c3ccc(CO)c(Cl)c3)c(Cl)c2Cl)ccn1 [Example 54, 1-(3-tert-butyl-1-(3-chloro-4-hydroxymethylphenyl)-1H-pyrazol-5-yl)-3-(2,3-dichloro-4-(2-(3-methylureido)pyridin-4-yloxy)phenyl)urea] | 8.60 | −34.9 | 71.2
12 | 7.80 | 7.41 | 9.15 | 9.10 | 8.35 | CN(C)[C@@H]1CCN(C(=O)Nc2cc(Oc3ccc(NC(=O)Nc4cc(C(C)(C)C)nn4-c4ccc(O)cc4)c(Cl)c3Cl)ccn2)C1 [Example 11, (R)—N-(4-(4-(3-(3-tert-Butyl-1-(4-hydroxyphenyl)-1H-pyrazol-5-yl)ureido)-2,3-dichlorophenoxy)pyridin-2-yl)-3-(dimethylamino)pyrrolidine-1-carboxamide] | 8.74 | −1.3 | 42.0
